In general, IC50 refers to the concentration that gives 50% inhibition. Higher therefore signals weaker potency.

One assay has as its target Kallikrein (Homo sapiens, UniProt P03952). Briefly: Kallikrein inhibition assay (fluorometric, H-Pro-Phe-Arg-AMC substrate). In kind it is biochemical. As to conditions: 24° C, HEPES pH 7.5, 5% DMSO, fluorescence after ten minutes. As for the experimental part:
Kallikrein activity was assayed fluorometrically with an aminomethyl coumarin-containing (AMC-containing) substrate according to procedures described in Zimmerman et al., Proc. Natl. Acad. Sci. USA 75:750 (1978), the entire teachings of which are incorporated herein by reference. Specifically, enzyme assays with varying concentrations of the fluorogenic substrate H-Pro-Phe-Arg-AMC were conducted at 24° C in 0.05 M 4-(2-hydroxyethyl)-piperazineethanesulfonic acid (HEPES) buffer, pH 7.5/5% (vol/vol) dimethyl sulfoxide. The final volume was 0.1 ml in each assay. Fluorescence was read after ten minutes at 360 nm (activation wavelength) and 460 nm (emission wavelength).

The subject of assay [1] is ICR derived male or female mice. The assay is described as follows: Acetic acid writhing assay. In kind it is in vivo. To be noted: for % Reduction of Writhes: one hour before acetic acid. As for the experimental part: The analgesic activity of a number of compounds of the present invention were tested in an acetic acid writhing assay disclosed in Inoue et al., Arzneimittel Forschung Drug Research 41:228 (1991), the entire teachings of which are incorporated herein by reference. The test substance was administered intraperitoneally (500, 100 and 20 mg/kg) to groups of 3 ICR derived male or female mice weighing 22±2 g one hour before the injection of acetic acid (3%, 10 ml/kg, IP). Reduction in the number of writhes by 50% or more per group of animals observed during the 5-10 minutes period after acetic acid administration, relative to a vehicle-treated control group (challenge with acetic acid), indicates analgesic activity.
(In general: In writhing tests, fewer writhes than in controls are read as antinociception.)

Assay [2] concerns Long Evans derived male or female rats. The assay is described as follows: Carageenan assay (hind paw edema). As to conditions: for Inhibition (of hind paw edema): 3 hours after carageenan; for Edema: hind paw edema 3 hours after carageenan. It is filed as in vivo. As for the experimental part:
The assay was performed according to procedures disclosed in Winter et al, Proc. Exper. Biol. Med 111: 544 (1962), the entire teachings of which are incorporated herein by reference. […] Hind paw edema, as a measure of inflammation, was measured 3 hours after carageenan administration using a plethysmometer (Ugo Basile Catalog No. 7150) with water cell (25 mm diameter, Catalog No. 7157). Reduction of hind paw edema by 30% or more indicates significant acute anti-inflammatory activity.

For another assay, the system named is male rats. Briefly: Rat model of inflammatory bowel disease (DNBS-induced distal colitis). It is filed as in vivo. Here is the method: Compounds were tested according to procedures described in C M Hogaboam et al., Eur. J. Pharmacol. 309:261 (1996), the entire teachings of which are incorporated herein by reference. Groups of 3 overnight fasted male rats weighing 150±10 grams were used. Distal colitis was induced by intra-colonic instillation of 0.5 ml/rat of DNBS (2,4-dinitrobenzene sulfonic acid, 60 mg/ml in ethanol 30%) after which air (2 ml) was gently injected through the cannula to ensure that the solution remained in the colon. Test compound was administered orally 24 and 2 hours before DNBS instillation and then daily for 5 days in total of 7 doses. The animals were sacrificed 24 hours after the final dose of test compound administration and each colon was removed and weighed. A 30 percent or more (≧30%) inhibition in net increase of colon to 100 grams body weight ratio, relative to vehicle-control-2 group is considered significant.

Setting [3] is: 4 mg/kg PO × 7, with DNBS, rats.
Where [4] appears, read: 20 mg/kg PO × 7, with DNBS, rats.
Where [5] appears, read: 75 mg/kg PO × 7, with DNBS, rats.

Sequence of Kallikrein (P03952 whole entry): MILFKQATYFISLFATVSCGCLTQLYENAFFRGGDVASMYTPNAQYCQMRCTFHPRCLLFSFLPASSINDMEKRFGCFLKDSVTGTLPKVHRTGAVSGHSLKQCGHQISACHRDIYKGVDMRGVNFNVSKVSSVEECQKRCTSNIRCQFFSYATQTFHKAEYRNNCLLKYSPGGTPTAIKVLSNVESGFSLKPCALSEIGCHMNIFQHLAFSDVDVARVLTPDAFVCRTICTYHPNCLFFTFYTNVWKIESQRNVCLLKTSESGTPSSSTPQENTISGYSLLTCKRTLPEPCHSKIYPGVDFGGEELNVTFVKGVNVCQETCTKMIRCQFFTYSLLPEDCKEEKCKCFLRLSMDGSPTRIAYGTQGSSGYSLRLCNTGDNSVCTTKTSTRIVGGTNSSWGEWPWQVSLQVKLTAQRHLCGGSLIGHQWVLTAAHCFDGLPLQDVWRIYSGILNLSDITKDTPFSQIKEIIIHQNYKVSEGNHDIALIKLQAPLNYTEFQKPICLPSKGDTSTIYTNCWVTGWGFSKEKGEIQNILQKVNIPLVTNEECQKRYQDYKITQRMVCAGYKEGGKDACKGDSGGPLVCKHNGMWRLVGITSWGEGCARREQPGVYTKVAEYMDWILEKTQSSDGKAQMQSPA

`COc1ccc(OC)c(C(=O)CCC(=O)OC(C(=O)NCc2cc(OC)c(OC)c(OC)c2)c2ccc3ccccc3c2)c1` (stereo not drawn) [Compound (24)] had a half-inhibitory concentration (IC50) against Kallikrein of 0.247 µM. Also, the entries for the “% Reduction of Writhes” value in assay [1] (20 mg/kg IP), in assay [1] (100 mg/kg IP) and in assay [1] (500 mg/kg IP) were 0%, 25% and 83%, respectively.

The molecule `COc1ccc(OC)c(C(=O)CCC(=O)OC(C(=O)NCc2cc(OC)c(OC)c(OC)c2)c2ccc(Br)cc2)c1` (stereo not drawn) [Compound (26)] gave an IC50 against Kallikrein of 0.191 µM. Moreover, the results for the “Inhibition (of hind paw edema)” value in assay [2] (30 mg/kg IP), in assay [2] (100 mg/kg IP) and in assay [2] (300 mg/kg IP) were 0%, 19% and 34%, respectively. The entries for the “Edema” value in assay [2] (30 mg/kg IP), in assay [2] (100 mg/kg IP) and in assay [2] (300 mg/kg IP) were 0.97 mL, 0.76 mL and 0.62 mL, respectively. Besides, the “dose response in the carageenan assay (in words)” value in assay [2] (300, 100 and 30 mg/kg IP) is on record as “dose responsive activity”. Moreover, in assay [2] (highest dose (300 mg/kg) IP), the “statistical significance of response in the carageenan assay (in words)” value was “statistically significant response”. Moreover, the “% Reduction of Writhes” value in assay [1] (20 mg/kg IP) came out at 25%; in assay [1] (100 mg/kg IP), 58%; in assay [1] (500 mg/kg IP), 75%. In assay [1] (both the 500 and 100 mg/kg doses IP), the “significance of response in the acetic acid writhing test (in words)” value is on record as “significant response”. The “Ave. (average final weight of the colon in grams)” value in the assay with male rats (setting [3]) is 1.061 grams; in the assay with male rats (setting [4]) it was 0.947 grams; in the assay with male rats (setting [5]), 0.857 grams. The “Inhibition (percent inhibition in net increase of colon weight relative to control Group 2)” value in the assay with male rats (setting [3]) worked out at 0%; in the assay on male rats (setting [4]) it was 17%; in the assay with male rats (setting [5]) it was 33%. Besides, the figures for the “Net Inc. (net increase in weight of the colon relative to control Group 1)” value in the assay with male rats (setting [3]), in the assay with male rats (setting [4]) and in the assay with male rats (setting [5]) were 0.574 grams, 0.460 grams and 0.370 grams, respectively. Further, the “dose response in the rat model of inflammatory bowel disease (in words)” value in the assay with male rats (75, 20 and 4 mg/kg PO × 7, rats) is on record as “dose responsive activity”. Moreover, the “statistical significance of response in the rat model of inflammatory bowel disease (in words)” value in the assay with male rats (highest dose (75 mg/kg) PO × 7, rats) is reported as “statistically significant response”. In addition, the “activity in a rat model of inflammatory bowel disease (in words)” value in the assay on male rats (summary statement) was “activity”.

As to `COc1cc(CNC(=O)C(OC(=O)CCOc2ccccc2)c2ccc(Br)cc2)cc(OC)c1OC` (stereo not drawn) [Compound (27)], the half-inhibitory concentration (IC50) against Kallikrein came out at 0.364 µM. Besides, the “% Reduction of Writhes” value came to 8% in assay [1] (20 mg/kg IP), 25% in assay [1] (100 mg/kg IP) and 92% in assay [1] (500 mg/kg IP).

In turn, `COc1ccc(NC(=O)C(OC(=O)CSc2ncccn2)c2ccc(Br)cc2)cc1OC` (stereo not drawn) [Compound (29)] came in with an IC50 at Kallikrein of 0.31 µM. For the same molecule, the results for the “% Reduction of Writhes” value in assay [1] (20 mg/kg IP), in assay [1] (100 mg/kg IP) and in assay [1] (500 mg/kg IP) were 17%, 33% and 83%, respectively.

For the molecule `COc1ccc2c(c1)c(CC(=O)O)c(C)n2C(=O)c1ccc(Cl)cc1` [Indomethacin, reference compound], in assay [2] (10 mg/kg IP), the “Inhibition (of hind paw edema)” value was found to be 53% and the “Edema” value amounted to 0.44 mL.

The values are drawn from patent publication US20040044075A1, “Alpha acyloxyacetamides for kallikrein and urokinase inhibition” (Genzyme Corporation, priority 2002, published 2004).
